According to US11963995B2, “Methods comprising desmopressin” (Ferring B.V., priority 2008, dated 2024):

Tested on: adult patients with nocturia
Experiment: Long term nocturnal voids, change from baseline up to week 52 (Parts II/III)
Format: in vivo, human
Conditions: for mean decrease in nocturnal voids per night at one year: Part III
Source text: To ensure that the study remained fully blinded during the full extent of both Parts I and II, re-randomization of subjects assigned to placebo after 4 weeks of treatment was predetermined at the time of initial randomization. […] The total treatment duration for each subject depended on when that subject was randomized in Part I and was estimated to be a minimum of 4 weeks and a maximum of 6 months. Upon completion of Part II of the study, subjects were given the option to participate in an open-label study with expected total treatment duration (double-blind extension plus open-label study) of at least 12 months (i.e., Part III). In Part III, subjects were assigned to the same treatment as in Part II, initially in a blinded manner. Subjects were unblinded and the study became open label only when all subjects in Parts I and II remaining in the study had entered Part III. During Part III, 10 μg was identified as a sub-therapeutic dose based on efficacy data from Part I. As a consequence, patients in the 10 μg treatment group were re-randomized (beginning Q4 2008) to one of the other treatment groups (i.e., 25 μg, 50 μg, or 100 μg). The total treatment duration was at least 12 months. A total of 508 patients entered the open-labeled extension (i.e., Part III). […] A summary of the changes from baseline is presented for all eligible subjects. […] However, based on the data below, the additional decreases in the number of voids can be characterized as clinically significant. As used here, “clinically significant” means a minimum worthwhile effect.

SMILES: NC(=O)CC[C@@H]1NC(=O)[C@H](Cc2ccccc2)NC(=O)[C@H](Cc2ccc(O)cc2)NC(=O)CCSSC[C@@H](C(=O)N2CCC[C@H]2C(=O)N[C@H](CCCN=C(N)N)C(=O)NCC(N)=O)NC(=O)[C@H](CC(N)=O)NC1=O [desmopressin]
- mean decrease in nocturnal voids per night at one year (25 μg, all eligible subjects): 1.4 voids per night
- Change from baseline of nocturnal voids, Mean (25 μg, all eligible female subjects, Day 28): −1.26
- Change from baseline of nocturnal voids, Mean (25 μg, all eligible female subjects, Week 8): −1.51
- Change from baseline of nocturnal voids, Mean (25 μg, all eligible female subjects, Week 12): −1.66
- Change from baseline of nocturnal voids, Mean (25 μg, all eligible female subjects, Week 20): −1.68
- Change from baseline of nocturnal voids, Mean (25 μg, all eligible female subjects, Week 28): −1.86
- Change from baseline of nocturnal voids, Mean (25 μg, all eligible female subjects, Week 52): −1.75
- Change from baseline of nocturnal voids, Mean (25 μg, all eligible male subjects, Day 28): −0.76
- Change from baseline of nocturnal voids, Mean (25 μg, all eligible male subjects, Week 8): −0.84
- Change from baseline of nocturnal voids, Mean (25 μg, all eligible male subjects, Week 12): −0.90
- Change from baseline of nocturnal voids, Mean (25 μg, all eligible male subjects, Week 20): −1.25
- Change from baseline of nocturnal voids, Mean (25 μg, all eligible male subjects, Week 28): −1.15
- Change from baseline of nocturnal voids, Mean (25 μg, all eligible male subjects, Week 52): −1.13
- Change from baseline of nocturnal voids, Mean (25 μg, all eligible subjects, Day 28): −0.98
- Change from baseline of nocturnal voids, Mean (25 μg, all eligible subjects, Week 8): −1.16
- Change from baseline of nocturnal voids, Mean (25 μg, all eligible subjects, Week 12): −1.29
- Change from baseline of nocturnal voids, Mean (25 μg, all eligible subjects, Week 20): −1.48
- Change from baseline of nocturnal voids, Mean (25 μg, all eligible subjects, Week 28): −1.44
- Change from baseline of nocturnal voids, Mean (25 μg, all eligible subjects, Week 52): −1.41
- Change from baseline of nocturnal voids, Mean (25 μg, all subjects with or without an assessment at week 52, Day 28): −0.96
- Change from baseline of nocturnal voids, Mean (25 μg, all subjects with or without an assessment at week 52, Week 12): −1.42
- Change from baseline of nocturnal voids, Mean (25 μg, all subjects with or without an assessment at week 52, Week 20): −1.61
- Change from baseline of nocturnal voids, Mean (25 μg, all subjects with or without an assessment at week 52, Week 28): −1.39
- Change from baseline of nocturnal voids, Mean (25 μg, all subjects with or without an assessment at week 52, Week 52): −1.41
- Change from baseline of nocturnal voids, Mean (25 μg, all subjects with or without an assessment at week 52, time printed as "Week" (between Day 28 and Week 12)): −1.31
- mean decrease in nocturnal voids per night at one year (50 μg, all eligible subjects): 1.77 voids per night
- Change from baseline of nocturnal voids, Mean (50 μg, all eligible female subjects, Day 28): −1.30
- Change from baseline of nocturnal voids, Mean (50 μg, all eligible female subjects, Week 8): −1.60
- Change from baseline of nocturnal voids, Mean (50 μg, all eligible female subjects, Week 12): −1.62
- Change from baseline of nocturnal voids, Mean (50 μg, all eligible female subjects, Week 20): −1.93
- Change from baseline of nocturnal voids, Mean (50 μg, all eligible female subjects, Week 28): −1.89
- Change from baseline of nocturnal voids, Mean (50 μg, all eligible female subjects, Week 52): −1.95
- Change from baseline of nocturnal voids, Mean (50 μg, all eligible male subjects, Day 28): −1.16
- Change from baseline of nocturnal voids, Mean (50 μg, all eligible male subjects, Week 8): −1.31
- Change from baseline of nocturnal voids, Mean (50 μg, all eligible male subjects, Week 12): −1.30
- Change from baseline of nocturnal voids, Mean (50 μg, all eligible male subjects, Week 20): −1.73
- Change from baseline of nocturnal voids, Mean (50 μg, all eligible male subjects, Week 28): −1.28
- Change from baseline of nocturnal voids, Mean (50 μg, all eligible male subjects, Week 52): −1.69
- Change from baseline of nocturnal voids, Mean (50 μg, all eligible subjects, Day 28): −1.22
- Change from baseline of nocturnal voids, Mean (50 μg, all eligible subjects, Week 8): −1.44
- Change from baseline of nocturnal voids, Mean (50 μg, all eligible subjects, Week 12): −1.44
- Change from baseline of nocturnal voids, Mean (50 μg, all eligible subjects, Week 20): −1.80
- Change from baseline of nocturnal voids, Mean (50 μg, all eligible subjects, Week 28): −1.55
- Change from baseline of nocturnal voids, Mean (50 μg, all eligible subjects, Week 52): −1.80
- Change from baseline of nocturnal voids, Mean (50 μg, all subjects with or without an assessment at week 52, Week 12): −1.51
- Change from baseline of nocturnal voids, Mean (50 μg, all subjects with or without an assessment at week 52, Week 20): −1.71
- Change from baseline of nocturnal voids, Mean (50 μg, all subjects with or without an assessment at week 52, Week 28): −1.55
- Change from baseline of nocturnal voids, Mean (50 μg, all subjects with or without an assessment at week 52, Week 52): −1.80
- Change from baseline of nocturnal voids, Mean (50 μg, all subjects with or without an assessment at week 52, time printed as "Day" (after Day 0)): −1.10
- Change from baseline of nocturnal voids, Mean (50 μg, all subjects with or without an assessment at week 52, time printed as "Week" (before Week 12)): −1.43
- mean decrease in nocturnal voids per night at one year (100 μg, all eligible subjects): 2.11 voids per night
- Change from baseline of nocturnal voids, Mean (100 μg, all eligible female subjects, Day 28): −1.50
- Change from baseline of nocturnal voids, Mean (100 μg, all eligible female subjects, Week 8): −1.69
- Change from baseline of nocturnal voids, Mean (100 μg, all eligible female subjects, Week 12): −1.79
- Change from baseline of nocturnal voids, Mean (100 μg, all eligible female subjects, Week 20): −1.98
- Change from baseline of nocturnal voids, Mean (100 μg, all eligible female subjects, Week 28): −1.75
- Change from baseline of nocturnal voids, Mean (100 μg, all eligible female subjects, Week 52): −2.11
- Change from baseline of nocturnal voids, Mean (100 μg, all eligible male subjects, Day 28): −1.31
- Change from baseline of nocturnal voids, Mean (100 μg, all eligible male subjects, Week 8): −1.52
- Change from baseline of nocturnal voids, Mean (100 μg, all eligible male subjects, Week 12): −1.89
- Change from baseline of nocturnal voids, Mean (100 μg, all eligible male subjects, Week 20): −1.92
- Change from baseline of nocturnal voids, Mean (100 μg, all eligible male subjects, Week 28): −1.92
- Change from baseline of nocturnal voids, Mean (100 μg, all eligible male subjects, Week 52): −2.12
- Change from baseline of nocturnal voids, Mean (100 μg, all eligible subjects, Day 28): −1.406
- Change from baseline of nocturnal voids, Mean (100 μg, all eligible subjects, Week 8): −1.61
- Change from baseline of nocturnal voids, Mean (100 μg, all eligible subjects, Week 12): −1.83
- Change from baseline of nocturnal voids, Mean (100 μg, all eligible subjects, Week 20): −1.95
- Change from baseline of nocturnal voids, Mean (100 μg, all eligible subjects, Week 28): −1.83
- Change from baseline of nocturnal voids, Mean (100 μg, all eligible subjects, Week 52): −2.11
- Change from baseline of nocturnal voids, Mean (100 μg, all subjects with or without an assessment at week 52, Day 28): −1.31
- Change from baseline of nocturnal voids, Mean (100 μg, all subjects with or without an assessment at week 52, Week 8): −1.47
- Change from baseline of nocturnal voids, Mean (100 μg, all subjects with or without an assessment at week 52, Week 12): −1.73
- Change from baseline of nocturnal voids, Mean (100 μg, all subjects with or without an assessment at week 52, Week 20): −1.86
- Change from baseline of nocturnal voids, Mean (100 μg, all subjects with or without an assessment at week 52, Week 52): −2.11
- Change from baseline of nocturnal voids, Mean (100 μg, all subjects with or without an assessment at week 52, time printed as "Week" (between Week 20 and Week 52)): −1.80
